The numbers were not newly measured in the CATMoS acute toxicity set (Mansouri et al. 2021), which cites them from elsewhere.

Where “and” joins values, the source holds several entries; their conditions need not be identical. Equal values may be shown once.

This data set can be described thus: rat acute oral toxicity. As to conditions: in vivo.
As usually defined, the LD50 is the dose at which mortality reaches 50%. With `Cc1nnc(NS(=O)(=O)c2ccc(N)cc2)s1`, the median lethal dose (LD50) is 3500 mg/kg.

`CCCc1ccccc1`: the median lethal dose (LD50) was 6040 mg/kg.

With `COP(=S)(OC)SCn1nc(Br)ccc1=O`, the 50% lethal dose (LD50) is 3.75 mg/kg.

With `COCC(=O)O`, the median lethal dose (LD50) was 1000 mg/kg.

On to `C[N+]1(CCC(O)(c2ccccc2)c2cccs2)CCOCC1` (stereo unspecified), for which the LD50 was 2300 mg/kg.

Turning to `COP(=S)(OC)OC1CC(C)CCC1C(C)C` (stereo unspecified), the median lethal dose (LD50) was 750 mg/kg.

As to `CCSC(C)CC1CC(=O)C(/C(CC)=N/OC/C=C/Cl)=C(O)C1` (stereo unspecified), the LD50 was 1360 mg/kg.

For the molecule `S=C(NNc1ccccc1)NNc1ccccc1`, the LD50 is 1500 mg/kg.

As for `CCSC(=O)COc1ccc(Cl)cc1C`, the LD50 was 790 mg/kg.

As for `O=C1C(O)=C(CC=C(Cl)Cl)C(=O)c2ccccc21`, the median lethal dose (LD50) is 281 mg/kg.

As for `O=C1C(=NNc2ccccc2)C(S(=O)(=O)O)=Cc2cc(S(=O)(=O)O)cc(Nc3nc(Cl)nc(Cl)n3)c21`, the median lethal dose (LD50) was 7460 mg/kg.

Regarding `C=CC(C)NC(=S)NNC(=S)NC` (stereo unspecified), the LD50 is 1000 mg/kg.

Regarding `CCOP(=S)(OCC)SCC(N)=O`, the median lethal dose (LD50) was 10 mg/kg.

`ClC(Cl)=C1C(Cl)(Cl)C(Cl)=C(Cl)C1(Cl)Cl`: the LD50 was 3700 mg/kg.

Take `CNC(=O)ON=C1SCSC1C` (stereo unspecified): the LD50 was 0.88 mg/kg.

In the case of `CC(=O)Nc1c(I)c(C(=O)O)c(I)c(N(C)C(C)=O)c1I`, the median lethal dose (LD50) is 38100 mg/kg.

In the case of `CC(C)C(C(=O)OC(C#N)c1ccc(Oc2ccccc2)cc1)c1ccc(Cl)cc1` (stereo unspecified), the 50% lethal dose (LD50) is 451 mg/kg.

With `CC1=CCC2CC1C2(C)C` (stereo unspecified), the 50% lethal dose (LD50) was 3700 mg/kg.

As for `ClC(Cl)C(Cl)C(Cl)C(Cl)Cl` (stereo unspecified), the LD50 is 400 mg/kg.

With `CCOP(=S)(OC(C)C)ON1C(=O)c2ccccc2C1=O` (stereo unspecified), the median lethal dose (LD50) was 250 mg/kg.

On to `COCCOCCOCCOC(C)=O`, for which the 50% lethal dose (LD50) is 11000 mg/kg.

Consider `CC(C)(C)CC(C)(C)S`, for which the LD50 was 52 mg/kg.

Regarding `CN(C)C1CCc2ccccc2C(Oc2ccc([N+](=O)[O-])cc2)C1` (stereo unspecified), the 50% lethal dose (LD50) is 534 mg/kg.

On to `ONc1ccccc1`, for which the LD50 is 100 mg/kg.

Take `O=c1[nH]c2ccccc2n1CCCN1CCC(n2c(=O)[nH]c3cc(Cl)ccc32)CC1`: the 50% lethal dose (LD50) is 5240 mg/kg.

For `CC(=O)c1ccc2c(c1)N(CCCN(C)C)c1ccccc1S2`, the LD50 is 400 mg/kg.

On to `CCC(C(=O)c1ccc2[nH]c(=O)ccc2c1)N1CCN(c2cccc(Cl)c2)CC1` (stereo unspecified), for which the LD50 was 500 mg/kg.

For the molecule `O=C(O)c1cccc2c(Cl)ccc(C(=O)O)c12`, the LD50 was 3500 mg/kg.

As to `Cl[C@H]1[C@H](Cl)[C@@H](Cl)[C@H](Cl)[C@@H](Cl)[C@H]1Cl` (racemic), the 50% lethal dose (LD50) was 1000 mg/kg.

Turning to `C=Cc1ccc(CC)cn1`, the LD50 is 1230 mg/kg.

Take `CCCCCCCCCCOC(=O)Cc1ccc(N(CCCl)CCCl)cc1`: the LD50 is 150 mg/kg.

`O=C1OC(OC(=O)c2cccnc2Nc2cccc(C(F)(F)F)c2)c2ccccc21` (stereo unspecified): the median lethal dose (LD50) is 12000 mg/kg.

`O=C(C=Cc1ccccn1)OCCN1CCN(c2ccc(Cl)cc2)CC1`: the median lethal dose (LD50) is 478 mg/kg.

As to `CCCCc1c(C)nc2cccc(C)n2c1=O`, the LD50 is 1100 mg/kg.

Turning to `Clc1ccccc1CN1CCc2sccc2C1`, the LD50 is 1780 mg/kg.

For `CC(=O)O[C@]1(C)CC[C@@]23C[C@@H]1C(C)(C)[C@@H]2CC[C@H]3C`, the 50% lethal dose (LD50) is 44800 mg/kg.

For the molecule `CC(C)(Oc1ccc(C2CCCc3ccccc32)cc1)C(=O)O` (stereo unspecified), the median lethal dose (LD50) was 900 mg/kg.

As to `Cc1c(CC(=O)O)c2ccccc2n1C(=O)c1ccccc1`, the LD50 is 362 mg/kg.

For the molecule `COC(=O)C(=O)C(O)=C(O)OC`, the LD50 is 8000 mg/kg.

With `NS(=O)(=O)CCNC(=O)N(CCCl)N=O`, the median lethal dose (LD50) was 40 mg/kg.

As for `CC(C)(C)C1CCC(O)CC1` (stereo unspecified), the median lethal dose (LD50) is 4200 mg/kg.

`CCOc1cc2c3c([nH]c2cc1N)CCCC3`: the LD50 was 810 mg/kg.

As to `CCO[Si](C)(C)CCl`, the 50% lethal dose (LD50) is 1550 mg/kg.

As for `O=C(CF)Nc1ccc(-c2ccccc2)cc1`, the LD50 is 10 mg/kg.

Take `COC(=O)C1=C(C)NC(C)=C(C(=O)OC)C1c1ccccc1[N+](=O)[O-]`: the LD50 was 1020 mg/kg.

On to `Cc1ccccc1C(=O)Nc1cccc(OC(C)C)c1`, for which the LD50 was 10000 mg/kg.

As for `Cc1cc(C)n(SC(Cl)(Cl)Cl)n1`, the 50% lethal dose (LD50) is 570 mg/kg.

As for `CNCCC=C1c2ccccc2CCc2ccccc21`, the LD50 was 502 mg/kg and 405 mg/kg.

`Cc1ccc(OP(=O)(Oc2ccc(C)cc2)Oc2ccc(C)cc2)cc1`: the LD50 is 12800 mg/kg.

As for `OC1CC2CC1C1CC=CC21` (stereo unspecified), the LD50 was 3200 mg/kg.

For the molecule `N#CC(Cl)(Cl)C#N`, the LD50 was 130 mg/kg.

For `O=C(O)c1ccc2c3c(ccc(C(=O)O)c13)C(=O)OC2=O`, the median lethal dose (LD50) was 3510 mg/kg.

As to `C#CC(=O)O`, the LD50 is 100 mg/kg.

For `C[N@+]12CCCC[C@@H]1CCC(=C(c1cccs1)c1cccs1)C2`, the 50% lethal dose (LD50) is 1180 mg/kg.

As for `Fc1ccc(Br)c(F)c1`, the LD50 is 300 mg/kg.

Turning to `Oc1ccc(Sc2ccc(O)cc2)cc1`, the 50% lethal dose (LD50) was 3360 mg/kg.

Take `CC(=O)OC1CCC(N2CCCCC2)CC1` (stereo unspecified): the LD50 is 1950 mg/kg.

With `COP(=O)(OC)Oc1nc(Cl)c(Cl)cc1Cl`, the 50% lethal dose (LD50) is 869 mg/kg.

On to `COC(=O)/C=C(/CC(=O)OC)OP(=O)(OC)OC`, for which the 50% lethal dose (LD50) was 31 mg/kg.

For the molecule `CCC(=O)c1ccc2c(c1)N(CCCN1CCN(C)CC1)c1ccccc1S2`, the 50% lethal dose (LD50) is 600 mg/kg.

Turning to `COc1cccc(C(=O)NC2CC3CCC(C2)N3Cc2ccccc2)c1OC` (stereo unspecified), the 50% lethal dose (LD50) was 147 mg/kg.
